Data reported in US20260235546A1, “Methods and Systems for Interrogating Electrochemical Sensors” (The Regents of the University of California, priority 2023, published 2026).
Values joined by “and” are separate entries in the source; they are usually repeats but may differ in a detail not shown here. Identical values can stand only once.

Legend:
[1] = FFT-EIS-interrogated lactate-detecting EAB sensor, real-time plasma lactate in a living rat; assay type: in vivo, Sprague-Dawley rats; details: about 1000 mg/kg sodium lactate intravenously
Experimental: FFT-EIS can be used to interrogate in vivo EAB sensors to monitor plasma lactate concentrations in a live rat in real time (FIGS. 13A and 13B). Lactate is an important clinical biomarker for sepsis and hypoxia during anesthesia, and lactate levels are useful to monitor sport performances. FFT-EIS is used to characterize the lactate-detecting EAB sensor in undiluted blood held at about 37° C. by stepwise changing the lactate level and measuring the corresponding ket value (FIG. 13A). […] Lactate concentrations can be determined in real time in a living rat by measuring changes in ket when employing the lactate detecting EAB sensor (FIG. 13B). Stable concentrations were measured prior to intravenously infusing about 1000 mg/kg sodium lactate.
The lactate aptamer is modified with a six-carbon thiol and the redox reporter methylene blue. The aptamer was reduced for 1 h in a solution containing about 11.26 μM aptamer and 8.87 mM TCEP and subsequently diluted till 500 nM in a PBS buffer plus 2 mM MgCl2. The intravenous sensors were fed through 20-gauge catheters and used the in vitro sensors as is. To form the lactate-detecting EAB sensor, the aptamer was deposited on the gold electrode by immersing the electrode for 1 h in a 500 nM reduced lactate aptamer solution followed by overnight immersion in 10 mM 6-mercaptohexanol to form a self-assembled monolayer. […]

[2] = tested on: phenylalanine-detecting EAB sensor (methylene-blue-modified aptamer); experiment: FFT-EIS binding curve of phenylalanine-detecting EAB sensor in whole, freshly-collected rat's blood at 37° C
Experimental: (§1) To functionalize the working electrode the disulfide bond was first reduced in the stock alkanethiol-and-methylene-blue modified aptamer by combining 14 μL of 10 mM tris (2-carboxyethyl) phosphine with 2 μL of 100 μM DNA for 1 h in the dark. The gold electrodes were electrochemically cleaned and roughened with Millipore water and followed by immersion for 1 h in 500 nM reduced DNA in PBS. The electrodes were then transferred to a 10 mM solution of 6-mercapto-1-hexanol in PBS and stored overnight before use.
All electrochemical measurements were performed using an Autolab PGStat128N. The potentiostat was configured in “high stability mode” with a current range of ±1 μA, which affects the filter characteristics. For FFT-EIS measurements, the multi-sin waveform was generated by a DG812 arbitrary waveform generator (Rigol Technologies) and fed into the potentiostat's external voltage input using a BNC connection. The voltage waveform consisted of a superposition of 18 sine waves at logarithmically spaced frequencies ranging from 1 Hz to 1 kHz. The amplitude and phase of each sinusoidal oscillation were optimized for maximum signal-to-noise as discussed in the supporting information of Example 7, and the summed waveform was scaled to have a peak-to-peak amplitude of 25 mV. The potentiostat's native software (NOVA) was used to set the DC bias—the formal potential of methylene blue, as measured by cyclic voltammetry—on top of the AC perturbation. Voltage and current were recorded at 70 kHz using an SDS1202X-E oscilloscope. […] Data recording and processing were controlled by a custom Python program. Further details on the chosen waveform and artefact correction are described in supporting information of Example 7 (FIG. 7, FIG. 9, FIG. 11).
Impedance spectra were fitted to the equivalent circuit model using MEISP 3.0 after each experiment was complete. […]
Reference is made to FIG. 12. […] The endogenous concentration of phenylalanine in the blood (52 μM) was determined e using a fluorescent assay kit. […]

[3] = FFT-EIS-interrogated EAB sensor in jugular vein, real-time phenylalanine concentration in fasted and non-fasted rats; assay type: in vivo, Sprague-Dawley rats
Experimental: (§2) All in vivo experiments were performed on male Sprague-Dawley rats (4-5 months old). The rats weighed between 350-500 g and were pair-housed in a standard light cycle room (12:12 regular light cycle with lights on at 8 AM). They were allowed ad libitum access to food and water and the Institutional Animal Care and Use Committee (IACUC) of the University of California at Santa Barbara approved the experimental protocol which adhered to the guidelines given by the NIH Guide for Care and Use of Laboratory Animals.
Prior to the measurement, the rats were anesthetized using 4% isofluorane in a Plexiglas anesthesia chamber. Anesthesia was then maintained via a nose cone for the entire duration of the experiment at a level of 2-3% isofluorane. The neck was shaved and dissected in order to surgically isolate the left and right jugular veins. After isolating the two jugular veins, each one was tied off using sterile 6-0 silk sutures. Prior to the measurement, the wires in the sensor were adjusted such that the counter and working electrode were exposed outside of the 20G catheter into the vein as previously described. A small incision was then made in each vein using spring-loaded microscissors that allowed us to insert the sensor-containing catheter into the right jugular vein and an infusion line into the left jugular vein. Both the sensor and drug infusion catheter were anchored in place using two sterile 6-0 silk sutures. 30 units of heparin were infused through the infusion line immediately after insertion of the sensor and prior to any recordings. To intravenously dose the rats at 30 mg/kg a precalculated volume of 0.05 M vancomycin solution was injected using a syringe pump.
Specifically, after calibrating a phenylalanine-detecting EAB sensor in vitro, FFT-EIS interrogation was used to measure the molecule's concentration in the jugular veins of anesthetized rats with 1.8 s resolution. Doing so, it was observed baseline phenylalanine concentrations of 41±10 μM (the latter reflects one standard deviation) in a fasted animal and 39±6 μM in a non-fasted animal, values in line with previous reports. Upon two intravenous infusions of additional phenylalanine, rapid rises to peak concentrations of 300-400 μM were observed, followed by rapid decays back to baseline in the fasted animal.
Reference is made to FIG. 6. Using FFT-EIS to interrogate phenylalanine-detecting EAB sensors this metabolite has been monitored in situ in the jugulars of live rats with 1.8 s resolution. Reference Is made to panel (A). A fasted animal was infused with two sequential doses of phenylalanine. In both cases, the concentration of free phenylalanine in the blood quickly decayed back to the pre-infusion baseline (41±10 μM, 31±9 μM, and 25±10 μM before injection, after the first injection, and after the final injection, respectively). Reference is made to Panel (B). In contrast, the return to the post-infusion baseline was slower in a non-fasted animal, which is consistent with previous reports regarding phenylalanine homeostasis. Here, the raw data (light points) are smoothed using a 13-s rolling average (darker trace). Concentration decay transients were fitted to a two compartment (i.e., biexponential) model (black traces).

[4] = target: vancomycin-detecting EAB sensor (methylene-blue-modified aptamer); experiment: FFT-EIS binding curve (ket vs concentration) of vancomycin-detecting EAB sensor in whole bovine blood at 37° C; details: ± = estimated 95% confidence intervals, read-out: dissociation constant (KD), Hill-Langmuir isotherm fit of ket
Experimental: as §1
All electrochemical measurements were performed using an Autolab PGStat128N. The potentiostat was configured in “high stability mode” with a current range of ±1 μA, which affects the filter characteristics. […] The potentiostat's native software (NOVA) was used to set the DC bias—the formal potential of methylene blue, as measured by cyclic voltammetry—on top of the AC perturbation. Voltage and current were recorded at 70 kHz using an SDS1202X-E oscilloscope. […]
Reference is made to FIG. 3. In panel (A) the vancomycin-detecting EAB sensor was immersed in whole bovine blood at 37° C. and challenged with increasing quantities of the target molecule. […]
The impedimetric properties of EAB sensors, which are sensitive to target concentration, can be rapidly measured using FFT-EIS to enable highly-time resolved molecular measurements. […]

[5] = FFT-EIS-interrogated EAB sensor in jugular vein, real-time plasma vancomycin after intravenous infusion; assay type: in vivo, Sprague-Dawley rats; details: rat jugular vein
Experimental: as §2
Prior to the measurement, the rats were anesthetized using 4% isofluorane in a Plexiglas anesthesia chamber. […]
Aptamer-modified gold wire working electrodes were bundled with platinum counter and silver-silver chloride reference electrodes in a 20-gauge catheter (FIG. 4, panel A), and surgically inserted the resulting three-electrode sensor into the right jugular vein of an anesthetized rat. Full impedance spectra (containing 18 frequencies between 1 Hz and 1 kHz, FIG. 9) was then measured every 1.8 second for 2.5 hours. […]
FFT-EIS interrogation of EAB sensors provides a highly-time-resolved window into molecular physiology and pharmacokinetics (FIG. 5, panel A). […] Prior to drug infusion, vancomycin concentrations were measured fluctuating tightly around zero (1.1±1.7 μM). […]

[6] = fasted animal, first injection, ± = 95% confidence intervals
[7] = fasted animal, second injection, ± = 95% confidence intervals

## CC(O)C(=O)O (stereo not drawn) [lactate]
[1]
  plasma lactate level course after infusion: gradually returned to the prior baseline

## N[C@@H](Cc1ccccc1)C(=O)O [phenylalanine]
[2]; fitted
  ket,0 (ket in the absence of phenylalanine): 62.9 s⁻¹
  ket,max (ket at saturating phenylalanine): 225.8 s⁻¹
[2]; read-out: dissociation constant KD, Langmuir isotherm fit of ket
  Kd: 6.89 mM
[3]; fasted animal
  baseline concentration after the final injection: 25 ± 10 µM
  baseline concentration after the first injection: 31 ± 9 µM
[3]; [6]
  time constant τ1, biexponential decay: 0.2 ± 0.1 min
  time constant τ2, biexponential decay: 3.8 ± 0.2 min
[3]; [7]
  time constant τ1, biexponential decay: 1.7 ± 0.1 min
  time constant τ2, biexponential decay: 20 ± 2 min
[3]; fasted animal, two intravenous infusions
  peak concentration after intravenous infusion: 300 to 400 µM
[3]; fasted animal, ± = one standard deviation
  baseline concentration before injection: 41 ± 10 µM
[3]; non-fasted animal
  baseline concentration: 39 ± 6 µM
  time constant T2, biexponential decay: 35 ± 7 min
  time constant τ1, biexponential decay: 3.3 ± 0.1 min

## CN[C@H](CC(C)C)C(=O)N[C@H]1C(=O)N[C@@H](CC(N)=O)C(=O)N[C@H]2C(=O)N[C@H]3C(=O)N[C@H](C(=O)N[C@H](C(=O)O)c4cc(O)cc(O)c4-c4cc3ccc4O)[C@H](O)c3ccc(c(Cl)c3)Oc3cc2cc(c3O[C@@H]2O[C@H](CO)[C@@H](O)[C@H](O)[C@H]2O[C@H]2C[C@](C)(N)[C@H](O)[C@H](C)O2)Oc2ccc(cc2Cl)[C@H]1O [vancomycin]
[4]
  Kd: 0.144 ± 0.031 mM
[5]; after 30 mg/kg intravenous infusion, three separate animals, ± = 95% confidence intervals
  time constant of monoexponential concentration decay: 33.1 ± 0.5 min and 37.3 ± 0.7 min and 47.4 ± 1.3 min
[5]; pre-infusion
  measured concentration prior to drug infusion: 1.1 ± 1.7 µM
